Test results: patent US6573275B1, “Bicyclic amines” (Syngenta Limited, priority 1995, dated 2003)

System: peach aphid (Myzus persicae)
Assay: Insecticidal test against peach aphid, infested Chinese cabbage leaves sprayed
Assay type: in vivo
Conditions: peach aphid (Myzus persicae) on Chinese cabbage leaves, sprayed with 500 ppm composition unless otherwise stated, mortality assessed after 3 days
Procedure, shortened: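 Aphid-infested Chinese cabbage leaves were sprayed with compound at 500 ppm unless otherwise stated, formulated in acetone/ethanol diluted with water containing 0.05% Synperonic NP8. Mortality was assessed after 3 days.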

| Structure (SMILES) | Score (grading of mortality) |
| --- | --- |
| CN1[C@@H]2CC[C@H]1C[C@](C#N)(c1cc(Cl)nc(NN)c1)C2 [Compound 66, exo-3-(2-chloro-6-hydrazinopyrid-4-yl)-endo-3-cyano-8-methyl-8-azabicyclo[3.2.1]octane] | C (C indicates less than 40% mortality) |
| COc1cncc(C2(C#N)CC3CCC(C2)N3CC#N)c1 (centres unmarked) [Compound 166] | A (A indicates 80-100% mortality) |
| N#CC1(c2cncc(Cl)c2)CC2CCC(C1)N2Cc1ccc(C(F)(F)F)cc1C(F)(F)F (centres unmarked) [Compound 100] | A (A indicates 80-100% mortality) |
| CC(C)(C)NC(=O)N1C2CCC1CC(C#N)(c1cncc(Cl)c1)C2 (stereo not drawn) [Compound 146, exo-3-(5-chloropyrid-3-yl)-endo-3-cyano-8-(tert-butylcarbamyl)-8-azabicyclo[3.2.1]octane] | A (A indicates 80-100% mortality) |
| N#CC1(c2cncc(Cl)c2)CC2CCC(C1)N2Cc1ccccc1N1C(=O)CCC1=O (centres unmarked) [Compound 264] | A (A indicates 80-100% mortality) |
| N#C[C@@]1(c2cncc(Cl)c2)C[C@H]2CC[C@@H](C1)N2Cc1ccccc1 [Compound 237, exo-3-(5-chloropyrid-3-yl)-endo-3-cyano-8-benzyl-8-azabicyclo[3.2.1]octane] | A (A indicates 80-100% mortality) |
| N#CC1(c2cncc(Br)c2)CC2CCC(C1)N2CC(F)(F)F (centres unmarked) [Compound 143] | A (A indicates 80-100% mortality) |
| N#CC1(c2cncc(Cl)c2)CC2CCC(C1)N2CCCF (centres unmarked) [Compound 99] | A (A indicates 80-100% mortality) |
| N#CC1(c2cccnc2)CC2CCC(C1)N2 (stereo not drawn) [Compound 36, exo-3-(pyrid-3-yl)-endo-3-cyano-8-azabicyclo[3.2.1]octane] | A (A indicates 80-100% mortality) |
| COC(=O)N1C2CCC1CC(C#N)(c1cncc(Cl)c1)C2 (centres unmarked) [Compound 116] | A (A indicates 80-100% mortality) |
| N#C[C@@]1(c2cccnc2)C[C@H]2CC[C@@H](C1)N2CCF [Compound 34, exo-3-(pyrid-3-yl)-endo-3-cyano-8-(2-fluoroethyl)-8-azabicyclo[3.2.1]octane] | A (A indicates 80-100% mortality) |
| N#CC1(c2cc(F)cc(F)c2)CC2CCC(C1)N2Cc1ccccc1 (centres unmarked) [Compound 10] | A (A indicates 80-100% mortality) |
| Cc1ccc(CN2C3CCC2CC(C#N)(c2cncc(Cl)c2)C3)cc1 (centres unmarked) [Compound 248] | A (A indicates 80-100% mortality) |
| N#CC1(c2cncc(Cl)c2)CC2CCC(C1)N2c1ccc(Cl)cc1 (centres unmarked) [Compound 173] | A (A indicates 80-100% mortality) |
| N#CC1(c2cncc(Cl)c2)CC2CCC(C1)N2Cc1ccc(F)cc1I (centres unmarked) [Compound 262] | A (A indicates 80-100% mortality) |
| N#CC1(c2cncc(Cl)c2)CC2CCC(C1)N2Cc1cccc(Br)c1 (centres unmarked) [Compound 240] | A (A indicates 80-100% mortality) |
| N#CC1(c2cncc(Br)c2)CC2CCC(C1)N2 (centres unmarked) [Compound 203] | A (A indicates 80-100% mortality) |
| N#CC1(c2cncc(Cl)c2)CC2CCC(C1)N2C=CC(=O)C(F)(F)F (stereo not drawn) [Compound 88, exo-3-(5-chloropyrid-3-yl)-endo-3-cyano-8-(3-oxo-4,4,4-trifluorobut-1-en-1-yl)-8-azabicyclo[3.2.1]octane] | A (A indicates 80-100% mortality) |
| CN1C2CCC1CC(C#N)(c1cc(Cl)nc(Cl)n1)C2 (stereo not drawn) [Compound 63, exo-3-(2,6-dichloropyrimid-4-yl)-endo-3-cyano-8-methyl-8-azabicyclo[3.2.1]octane] | C (C indicates less than 40% mortality) |
| COC(=O)CCCN1C2CCC1CC(C#N)(c1cncc(Cl)c1)C2 (centres unmarked) [Compound 281] | A (A indicates 80-100% mortality) |
| N#CC1(c2cncc(Cl)c2)CC2CCC(C1)N2c1ncc(Cl)s1 (stereo not drawn) [Compound 168, exo-3-(5-chloropyrid-3-yl)-endo-3-cyano-8-(5-chlorothiazol-2-yl)-8-azabicyclo[3.2.1]octane] | A (A indicates 80-100% mortality) |
| CC(=O)OCC(C)(c1ccccc1)N1C2CCC1CC(C#N)(c1cncc(Cl)c1)C2 (stereo not drawn) [Compound 178, exo-3-(5-chloropyrid-3-yl)-endo-3-cyano-8-(2-phenyl-3-acetoxyprop-2-yl)-8-azabicyclo[3.2.1]octane] | A (A indicates 80-100% mortality) |
| N#CC1(c2cncc(Cl)c2)CC2CCC(C1)N2c1cncc(Cl)c1 (centres unmarked) [Compound 155] | A (A indicates 80-100% mortality) |
| N#CC1(c2cncc(Cl)c2)CC2CCC(C1)N2c1cccc(C(F)(F)F)n1 (centres unmarked) [Compound 136] | C (C indicates less than 40% mortality) |
| CN1C2CCC1CC(C#N)(c1ccc(Cl)nn1)C2 (stereo not drawn) [Compound 41, exo-3-(6-chloropyridazin-3-yl)-endo-3-cyano-8-methyl-8-azabicyclo[3.2.1]octane] | A (A indicates 80-100% mortality) |
| N#CC1(c2cncc(Cl)c2)CC2CCC(C1)N2c1cc(Cl)ncn1 (centres unmarked) [Compound 152] | A (A indicates 80-100% mortality) |
